Results taken from patent publication US9771394B2, “Antimicrobial polymyxins for treatment of bacterial infections” (priority 2014, dated 2017).
Like-named read-outs stand apart in the source and are kept apart here. Starred links: 1 amine or outer side, 2 acyl side, 3 side chain; linkers in the order of their positions; H or OH if unused. Positions of bridges follow the written chain, without caps; N, C: chain ends. Non-standard residues stand in square brackets, D forms with d. Residues, ends and D or L forms follow the SMILES beside them. ξ: configuration not given here. *: point of attachment. X8 = NCC[C@H](OC(=O)Cc1ccc(-c2ccccc2)cc1)C(=O)*; X6 = NCC[C@H](OC(=O)c1ccc(-c2ccccc2)cc1)C(=O)*; X9 = CCC(C)(C)C(=O)OCCC(=O)O[C@@H](CCN)C(=O)*; X3 = CCCCCCCC(=O)O[C@@H](CCN)C(=O)*; X11 = CCCCOP(=O)(CC(=O)*)OCCCC; Thr(3ξ) = CC(O)[C@H](N)C(=O)O; X10 = O=C(C1CNCCN1[*:1])[*:2]; X7 = CC(=O)O[C@@H](CCN)C(=O)*; X1 = CCC(C)(C)C(=O)OCCC(=O)*; X2 = CCCC(C)OC(=O)CCC(=O)*; Dab = NCC[C@H](N)C(=O)O; X4 = CCCCOC(=O)CCC(=O)*; Dap = NC[C@H](N)C(=O)O

Key:
P. aeruginosa PAE 1001 = type: cell-based, Pseudomonas aeruginosa
Source text: (§1) In vitro activity of compounds provided herein may be assessed by standard testing procedures such as the determination of minimum inhibitory concentration (MIC, μg/mL) just as described in “Methods for Dilution Antimicrobial Susceptibility Tests for Bacteria That Grow Aerobically; Approved Standard—Ninth Edition,” published in 2012 by the Clinical and Laboratory Standards Institute, Wayne, Pa., USA. Thus, bacterial colonies grown overnight on Mueller-Hinton Agar plate were selected and suspended in sterile saline to a turbidity of about 80% transmittance, as measured by a spectrophotometer. The suspension was diluted 200-fold with cation-adjusted Mueller-Hinton broth to serve as the inoculum for testing. Two-fold serial dilutions of the test compound were performed in 96-well master plate to arrive at desired concentration. Samples of 10 microliter from each well of the master plate were transferred into respective wells of 96-well assay plate. Bacterial inoculum (90 microliter) was introduced into each well of the assay plate. The assay plate was placed in the incubator at 35° C. for about 24 h (without agitation) followed by the MIC determination. MIC values were determined based on the presence or absence of bacterial growth in wells at the given test agent concentration. MIC value is defined as the lowest concentration of test antibiotic that prevents visible bacterial growth.
(§2) The useful activity of exemplary compounds described herein against Gram-negative pathogens Pseudomonas aeruginosa, Escherichia coli, or Klebsiela pneumoniae is illustrated by the MIC data of Table 1.

E. coli WECO 1003 = type: cell-based, Escherichia coli
Source text: as §1, §2

K. pneumoniae KPN1004 = type: cell-based, Klebsiela pneumoniae
Source text: as §1, §2

P. aeruginosa = P. aeruginosa thigh infection mouse model, IV dosing; type: in vivo, Pseudomonas aeruginosa; conditions: CFU change at 12 h vs no treatment control, PMB values in parenthesis side-by-side
Source text: A lower ED50 value indicates a higher therapeutic efficacy of the drug. The number of surviving animals (from the total number of infected animals used at a given drug dose) is another indicator of efficacy. […] In thigh and lung infection models, a greater reduction in the bacterial colony-forming units (CFU) indicates stronger beneficial therapeutic effect (more bacterial eradication), while a lower CFU reduction or an increase in CFU value indicates a lower effect (less bacterial eradication), or an absence of the therapeutic effect.

[1] = Stability in human plasma at 37° C.; type: in vitro ADME
Experimental: Exemplary compounds of this invention were tested for stability in human plasma at 37° C., replicating in vivo conditions of mammalian blood. Plasma stability for select compounds was performed as follows. Human plasma (K2 EDTA) was obtained from Bioreclamation. The assay was carried out in 96-well microtiter plates. Test compounds were incubated in duplicate at 37° C. in the presence of plasma. Reaction mixtures (25 μL) contained a final concentration of 25 μM test compound. The extent of metabolism was calculated as the disappearance of the test compound over time. Eucatropine was included as a positive control to verify assay performance. At each given time point, 100 μL of quench solution (100% MeCN with 0.1% HCOOH) with internal standard was transferred to each well. Plates were sealed, vortexed, and centrifuged at 4° C. for 15 minutes at 4,000 rpm. The supernatant was transferred to fresh plates for LC/MS/MS analysis. The formation of a potential metabolite was monitored in all samples. The samples were analyzed on LC/MS/MS using an AB Sciex API 4000 instrument, coupled to a Shimadzu LC-20AD LC Pump system. Analytical samples were separated using a Waters Atlantis T3 dC18 reverse phase HPLC column (20 mm×2.1 mm) at […] a flow rate of 0.5 mL/min, eluting with 0.1% aq. HCOOH and 0.1% HCOOH in MeCN (using gradient from 2% to 98% of the latter). Remaining test compounds were quantified via MS/MS ion current.

human HK-2 cell = assay: Human HK-2 cell cytotoxicity assay (in vitro nephrotoxicity); type: cell-based
Source text: Nephrotoxicity of polymyxins could be determined in vitro using human renal […] (HK-2) cytotoxicity assay, analogously to that described, for example, by Keirstead et al. in Toxicol. Sci., 2014, vol. 137, pp. 278-291. In vivo, nephrotoxicity could be determined using urine biomarker assays, such as clinically validated neutrophil gelatinase-associated lipocalin (NGAL) assay described, for example by Devarajan in Scand. J. Clin. Lab. Invest. Suppl., 2008, vol. […], pp. 89-94.

[2] = 35° C., about 24 h, cation-adjusted Mueller-Hinton broth

| SMILES | Antibacterial activity (MIC) P. aeruginosa PAE 1001 (P. aeruginosa PAE 1001; PAE 1001, 24 h) [mg/L] | Antibacterial activity (MIC) E. coli WECO 1003 (E. coli WECO 1003; WECO 1003, 24 h) [mg/L] | Antibacterial activity (MIC) K. pneumoniae KPN1004 (K. pneumoniae KPN1004; KPN1004, 24 h) [mg/L] | other results |
| --- | --- | --- | --- | --- |
| CCCCOC(=O)CCC(=O)N[C@@H](CCN)C(=O)N[C@H](C(=O)N[C@@H](CCN)C(=O)N[C@H]1CCNC(=O)[C@H](C(C)O)NC(=O)[C@H](CCN)NC(=O)[C@H](CCN)NC(=O)[C@H](CC(C)C)NC(=O)[C@@H](Cc2ccccc2)NC(=O)[C@H](CCN)NC1=O)C(C)O (stereo partly drawn) [Example 7] (X4-[Dab][Thr(3ξ)][Dab][Dab][Dab][dF]L[Dab][Dab][Thr(3ξ)]; lactam 4-C) | 4 | 4 | 2 | P. aeruginosa Thigh model, IV dosing ΔlogCFU at 5 mg/kg (P. aeruginosa): −0.50; remaining at 1 h, 25 μM ([1]; human, plasma): 49%; remaining at 4 h, 25 μM ([1]; human, plasma): 15% |
| CC(C)C[C@@H]1NC(=O)[C@@H](Cc2ccccc2)NC(=O)[C@H](CCN)NC(=O)[C@@H](NC(=O)[C@H](CCN)NC(=O)[C@@H](NC(=O)[C@H](CCN)OC(=O)c2ccc(-c3ccccc3)cc2)C(C)O)CCNC(=O)[C@H](C(C)O)NC(=O)[C@H](CCN)NC(=O)[C@H](CCN)NC1=O (stereo partly drawn) [Example 3] (X6-[Thr(3ξ)][Dab][Dab][Dab][dF]L[Dab][Dab][Thr(3ξ)]; lactam 3-C) | 4 | 4 | 4 | – |
| CCC(C)(C)C(=O)OCCC(=O)O[C@@H](CCN)C(=O)N[C@H](C(=O)N[C@@H](CCN)C(=O)N[C@H]1CCNC(=O)[C@H](C(C)O)NC(=O)[C@H](CCN)NC(=O)[C@H](CCN)NC(=O)[C@H](CC(C)C)NC(=O)[C@@H](Cc2ccccc2)NC(=O)[C@H](CCN)NC1=O)C(C)O (stereo partly drawn) [Example 34] (X9-[Thr(3ξ)][Dab][Dab][Dab][dF]L[Dab][Dab][Thr(3ξ)]; lactam 3-C) | 4 | 4 | 4 | – |
| CCC(C)(C)C(=O)OCCC(=O)N[C@@H](CN)C(=O)N[C@H](C(=O)N[C@@H](CCN)C(=O)N[C@H]1CCNC(=O)[C@H](C(C)O)NC(=O)[C@H](CCN)NC(=O)[C@H](CCN)NC(=O)[C@H](CC(C)C)NC(=O)[C@@H](Cc2ccccc2)NC(=O)[C@H](CCN)NC1=O)C(C)O (stereo partly drawn) [Example 35] (X1-[Dap][Thr(3ξ)][Dab][Dab][Dab][dF]L[Dab][Dab][Thr(3ξ)]; lactam 4-C) | 4 | 1 | 4 | – |
| CC(=O)O[C@@H](CCN)C(=O)N[C@H](C(=O)N[C@@H](CCN)C(=O)N[C@H]1CCNC(=O)[C@H](C(C)O)NC(=O)[C@H](CCN)NC(=O)[C@H](CCN)NC(=O)[C@H](CC(C)C)NC(=O)[C@@H](Cc2ccccc2)NC(=O)[C@H](CCN)NC1=O)C(C)O (stereo partly drawn) [Example 43] (X7-[Thr(3ξ)][Dab][Dab][Dab][dF]L[Dab][Dab][Thr(3ξ)]; lactam 3-C) | 8 | 8 | >32 | – |
| CC(C)C[C@@H]1NC(=O)[C@@H](Cc2ccccc2)NC(=O)[C@H](CCN)NC(=O)[C@@H](NC(=O)[C@H](CCN)NC(=O)[C@@H](N)[C@@H](C)O)CCNC(=O)[C@H]([C@@H](C)O)NC(=O)[C@H](CCN)NC(=O)[C@H](CCN)NC1=O [Reference Example 40, Polymyxin B nonapeptide, reference compound] (H-T[Dab][Dab][Dab][dF]L[Dab][Dab]T; lactam 3-C) | >32 | >32 | >32 | HK-2 cytotoxicity class (human HK-2 cell): Class 4; IC50 (human HK-2 cell): > 200 µM |
| CCCC(C)OC(=O)CCC(=O)N1CCNCC1C(=O)N[C@H](C(=O)N[C@@H](CCN)C(=O)N[C@H]1CCNC(=O)[C@H](C(C)O)NC(=O)[C@H](CCN)NC(=O)[C@H](CCN)NC(=O)[C@H](CC(C)C)NC(=O)[C@@H](Cc2ccccc2)NC(=O)[C@H](CCN)NC1=O)C(C)O (stereo partly drawn) [Example 31] (X2-[X10][Thr(3ξ)][Dab][Dab][Dab][dF]L[Dab][Dab][Thr(3ξ)]; lactam 4-C) | 8 | 8 | 8 | – |
| CCCCCCCC(=O)O[C@@H](CCN)C(=O)N[C@H](C(=O)N[C@@H](CCN)C(=O)N[C@H]1CCNC(=O)[C@H](C(C)O)NC(=O)[C@H](CCN)NC(=O)[C@H](CCN)NC(=O)[C@H](CC(C)C)NC(=O)[C@@H](Cc2ccccc2)NC(=O)[C@H](CCN)NC1=O)C(C)O (stereo partly drawn) [Reference Example 1, reference compound] (X3-[Thr(3ξ)][Dab][Dab][Dab][dF]L[Dab][Dab][Thr(3ξ)]; lactam 3-C) | 8 | 4 | 2 | P. aeruginosa Thigh model, IV dosing ΔlogCFU at 5 mg/kg (P. aeruginosa): −1.92; formation of the expected metabolite (compound of Example 44) by MS analysis [1]: no formation; metabolism in human plasma [1]: no discernable metabolism; remaining at 4 h, 25 μM ([1]; human, plasma): 100% |
| CC(C)C[C@@H]1NC(=O)[C@@H](Cc2ccccc2)NC(=O)[C@H](CCN)NC(=O)[C@@H](NC(=O)[C@H](CCN)NC(=O)[C@@H](NC(=O)[C@H](CCN)OC(=O)Cc2ccc(-c3ccccc3)cc2)C(C)O)CCNC(=O)[C@H](C(C)O)NC(=O)[C@H](CCN)NC(=O)[C@H](CCN)NC1=O (stereo partly drawn) [Example 2] (X8-[Thr(3ξ)][Dab][Dab][Dab][dF]L[Dab][Dab][Thr(3ξ)]; lactam 3-C) | 4 | 8 | 2 | – |
| CCCCOP(=O)(CC(=O)N[C@@H](CCN)C(=O)N[C@H](C(=O)N[C@@H](CCN)C(=O)N[C@H]1CCNC(=O)[C@H](C(C)O)NC(=O)[C@H](CCN)NC(=O)[C@H](CCN)NC(=O)[C@H](CC(C)C)NC(=O)[C@@H](Cc2ccccc2)NC(=O)[C@H](CCN)NC1=O)C(C)O)OCCCC (stereo partly drawn) [Example 30] (X11-[Dab][Thr(3ξ)][Dab][Dab][Dab][dF]L[Dab][Dab][Thr(3ξ)]; lactam 4-C) | – | – | – | Antibacterial activity (MIC) P. aeruginosa PAE 1001 (P. aeruginosa PAE 1001; [2]): 2 mg/L; Antibacterial activity (MIC) E. coli WECO 1003 (E. coli WECO 1003; [2]): 2 mg/L; Antibacterial activity (MIC) K. pneumoniae KPN1004 (K. pneumoniae KPN1004; [2]): 4 mg/L |
